In publication doi:10.1101/679977v1 (bioRxiv, 2019):
Square brackets hold non-standard residues; d marks the D form. Peptide text beside a SMILES is read from it.

How the values were obtained:
Format in all cases: cell-based
E. coli = experiment: Geometric mean of MICs, selectivity and targeting indices; settings: for TI Beneficial strains (targeting index): GM(E. coli)/GM(beneficial strains); for TI Beneficial strains (targeting index) / TI Pathogenic strains (targeting index): smaller = greater specificity; for TI Pathogenic strains (targeting index): GM(E. coli)/GM(other pathogenic strains); for SI E. coli (selectivity index): MHC/GM (E. coli), MHC >128 counted as 256 μM, larger = greater cell selectivity; for TI All (TIall, targeting index): all strains, smaller = greater specificity for E. coli; for GM E. coli: geometric mean of MICs against the 6 E. coli strains, >128 counted as 256 μM
E. coli ATCC25922 = experiment: Salt, serum, acid and alkaline sensitivity; settings: for MIC, Control: absence of physiological salts, serum, acid and alkaline; for MIC, FeCl3: in presence of 4μM FeCl3 (final); for MIC, MgCl2: in presence of 1 mM MgCl2; for MIC, KCl: in presence of 4.5 mM KCl (final); for MIC, NaCl: in presence of 150 mM NaCl (final); for MIC, PH=2: peptide incubated at pH=2 for 4 h prior to MIC determination; for MIC, PH=4: peptide incubated at pH=4 for 4 h prior to MIC determination; for MIC, PH=10: peptide incubated at pH=10 for 4 h prior to MIC determination; for MIC, PH=12: peptide incubated at pH=12 for 4 h prior to MIC determination
Beneficial strains = experiment: Geometric mean of MICs; settings: geometric mean of MICs against beneficial strains; >128 counted as 256 μM

Row | SMILES | TI Beneficial strains (targeting index) (E. coli) | TI Pathogenic strains (targeting index) (E. coli) | SI E. coli (selectivity index) (E. coli) | TI All (TIall, targeting index) (E. coli) | GM E. coli (E. coli) [µM] | MIC, Control (E. coli ATCC25922) [µM] | MIC, FeCl3 (E. coli ATCC25922) [µM] | MIC, MgCl2 (E. coli ATCC25922) [µM] | MIC, KCl (E. coli ATCC25922) [µM] | MIC, NaCl (E. coli ATCC25922) [µM] | MIC, PH=2 (E. coli ATCC25922) [µM] | MIC, PH=4 (E. coli ATCC25922) [µM] | MIC, PH=10 (E. coli ATCC25922) [µM] | MIC, PH=12 (E. coli ATCC25922) [µM] | GM Beneficial strains (Beneficial strains) [µM]
1 | CC[C@H](C)[C@H](NC(=O)CNC(=O)[C@H]1CCCN1C(=O)[C@H](CCCCN)NC(=O)[C@H](Cc1c[nH]c2ccccc12)NC(=O)[C@@H](NC(=O)[C@H](CCCCN)NC(=O)[C@H](CCCCN)NC(=O)[C@H](Cc1c[nH]c2ccccc12)NC(=O)CNC(=O)CNC(=O)CNC(=O)[C@H](C)NC(=O)[C@H](CO)NC(=O)[C@H](CC(C)C)NC(=O)[C@H](CCCNC(=N)N)NC(=O)[C@@H](NC(=O)[C@H](CCCNC(=N)N)NC(=O)[C@@H]1CCCN1C(=O)[C@H](CCCNC(=N)N)NC(=O)[C@H](CCCCN)NC(=O)[C@@H](N)CCC(N)=O)C(C)C)[C@@H](C)CC)C(=O)N[C@@H](CCCCN)C(=O)N[C@@H](CCCCN)C(=O)N[C@@H](Cc1c[nH]c2ccccc12)C(=O)N[C@H](C(=O)N[C@@H](CCCCN)C(=O)O)[C@@H](C)CC [Peptide 12] (H-QKRPRVRLSAGGGWKKIWK[dP]GIKKWIK-OH; N-terminus and C-terminus assumed) | 0.031 | 0.039 | 32.000 | 0.035 | 8.000 | 8 | 8 | 32 | 8 | >64 | 16 | 8 | 16 | 16 | 256.000
2 | CC[C@H](C)[C@H](NC(=O)CNC(=O)[C@H]1CCCN1C(=O)[C@H](CCCCN)NC(=O)[C@H](Cc1c[nH]c2ccccc12)NC(=O)[C@@H](NC(=O)[C@H](CCCCN)NC(=O)[C@@H](NC(=O)[C@@H](N)Cc1c[nH]c2ccccc12)[C@@H](C)CC)[C@@H](C)CC)C(=O)N[C@@H](CCCCN)C(=O)N[C@@H](CCCCN)C(=O)N[C@@H](Cc1c[nH]c2ccccc12)C(=O)N[C@H](C(=O)N[C@@H](CCCCN)C(=O)O)[C@@H](C)CC [Peptide 7] (H-WIKIWK[dP]GIKKWIK-OH; N-terminus and C-terminus assumed) | 0.099 | 0.111 | 10.080 | 0.105 | 25.398 | 32 | 32 | >64 | 32 | >64 | 32 | 32 | 32 | 32 | 256.000
